Reference: ChEMBL document CHEMBL1151391, “New Dihydrochalcones and Flavanones From Uvaria Angolensis” (1982)

Columns and labels:
Format in all cases: functional
Bacillus subtilis = assay: Antimicrobial activity against Bacillus subtilis
[1] = system: Mycolicibacterium smegmatis; assay: Antimicrobial activity against Mycobacterium smegmatis
Staphylococcus aureus = assay: Antimicrobial activity against Staphylococcus aureus

| Compound | Activity (Bacillus subtilis) | Activity [1] | Activity (Staphylococcus aureus) |
| --- | --- | --- | --- |
| COc1c(C)c(O)c(Cc2ccccc2O)c(O)c1C(=O)CCc1ccccc1 [ANGUVETIN] | 0.2 µg/mL | 1.5 µg/mL | 1.5 µg/mL |
| COc1c(C)c(O)c(C)c(O)c1C(=O)CCc1ccccc1 [ANGOLETIN] | 0.8 µg/mL | 6.3 µg/mL | 12.5 µg/mL |
